# Source: patent US9447060B2, “Small molecule modulators of pRb inactivation” (The Wistar Institute of Anatomy and Biology, priority 2011, dated 2016)
# What was measured:
# [1] = molecular target: T1, GST-pRbABC/E2F complex disrupted by 6×His-Ad5E1ACR1-3 (Homo sapiens, UniProt P06400); assay: ELISA: inhibition of adenovirus E1A-mediated disruption of pRb/E2F complexes; type: binding; conditions: E2F remaining bound to pRb; 100 nM E1A
# T1 construct: made in house; host or cells: pRb: Sf9; E2F1 and E1A: E. coli BL21(DE3)
# T1 sequence (P06400 376-928): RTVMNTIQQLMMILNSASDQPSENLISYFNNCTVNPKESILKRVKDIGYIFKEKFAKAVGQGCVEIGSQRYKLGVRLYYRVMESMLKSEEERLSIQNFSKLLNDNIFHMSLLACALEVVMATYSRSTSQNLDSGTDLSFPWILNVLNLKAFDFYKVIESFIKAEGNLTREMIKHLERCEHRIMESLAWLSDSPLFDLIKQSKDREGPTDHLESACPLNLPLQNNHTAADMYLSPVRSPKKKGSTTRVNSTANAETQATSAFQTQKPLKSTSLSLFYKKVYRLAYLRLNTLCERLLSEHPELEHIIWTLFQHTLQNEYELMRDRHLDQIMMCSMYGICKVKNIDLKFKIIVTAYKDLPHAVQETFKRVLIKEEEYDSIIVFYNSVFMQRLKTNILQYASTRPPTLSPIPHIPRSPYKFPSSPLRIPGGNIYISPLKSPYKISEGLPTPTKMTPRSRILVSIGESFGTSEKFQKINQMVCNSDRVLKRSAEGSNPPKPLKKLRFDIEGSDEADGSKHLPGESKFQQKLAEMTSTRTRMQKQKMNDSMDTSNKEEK
# T1 sequence (Q01094 243-437 partner limits assumed): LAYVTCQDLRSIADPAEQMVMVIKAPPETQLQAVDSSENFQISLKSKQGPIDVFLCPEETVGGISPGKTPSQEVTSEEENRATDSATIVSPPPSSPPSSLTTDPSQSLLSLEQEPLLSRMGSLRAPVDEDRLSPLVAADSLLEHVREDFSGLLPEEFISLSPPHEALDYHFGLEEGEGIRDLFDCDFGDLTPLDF
# Experimental: (§1) Since HPV-E7 mediates high affinity pRb binding through the association of its L×C×E motif in CR2 to the B domain of pRb, the ability of the thiadiazolidinedione compounds to inhibit the ability of other L×C×E containing viral oncoproteins from disrupting E2F/pRb complexes was tested. The other L×C×E containing viral oncoproteins tested included HPV-E7 from a low risk HPV form (type 1A) and Adenovirus E1A proteins.
# (§2) A similar ELISA assay was used to assess the ability of the compounds to inhibit the ability of HPV16-E7-mediated disruption of E2F/pRb complexes. For these studies, 6×His-HPV1AE7CR2-3 and 6×His-Ad5E1ACR1-3, containing the L×C×E motif, were employed. The assay described above was modified in such a way that GST-pRbABC alone was added to HPV-E7CR2-3+ compound, HPV-E7CR2-3+DMSO, Ad5-E1ACR1-3+ compound, or Ad5-E1ACR1-3 DMSO. Mouse monoclonal anti-His antibody (Fisher) diluted 1:10,000 was used to detect how much His-E7CR2-3 remained bound to GST-pRbABC on the plate. Mouse monoclonal Ad5-E1A antibody (Abeam) diluted 1:10,000 was used to detect how much E1ACR1-3 remained bound to GST-pRbABC on the plate. All other steps remained unchanged.
# [2] = molecular target: T2, GST-pRbABC/6×His-HPV16-E7CR2-3 complex (Homo sapiens, UniProt P06400); assay: ELISA: disruption of pRb/HPV16-E7 complex; type: binding; conditions: disruption of pRb/viral oncoprotein complex; 500 nM 16E7
# T2 construct: made in house; host or cells: pRb: Sf9; E7: E. coli BL21(DE3)
# T2 sequence (P06400 376-928): T1 sequence (P06400 376-928)
# Experimental: An ELISA assay was utilized with modifications such that the amount of 6×His-HPV16-E7CR2-3 remaining bound to the partner protein on the plate could be measured. The compounds identified in Example 2 were purchased (Lankenau Institute for Medical Research) as powders. Their purity was verified by LC/MS and their structures by NMR. IC50 values were then measured for (i) the compounds identified in Example 1, (ii) the compounds prepared according to Examples 3-5, (iii) 2-phenyl-4-methyl-1,2,4-thiadiazolidin-3,5-dione (available from Molport, Latvia), and (iv) 4-benzyl-2-methyl-1,2,4-thiadiazolidin-3,5-dione (TDZD-8; Catalog No. T8325-5MG, Sigma) using the same ELISA-based assay as described for the high-throughput screen, except that the assay was performed manually in 96-well format and so all volumes used were double those from 384-well format.
# All compounds were solubilized in DMSO (50 mM) and diluted for use in the ELISA-based assay at a final DMSO concentration of less than 5%. Ten-fold dilutions of thiadiazolin-3,5-dione compound (starting at 100 μM) were added to a mixture containing GST-pRbABC and 6×His-HPV16E7CR2-3. The amount of E7 remaining was determined by adding a primary anti-His antibody. The concentrations of the compounds in the IC50 experiment spanned the range of enzyme activity from no inhibition to complete inhibition. Three independent IC50 measurements were performed for each compound and the average and standard deviation values are reported. All data was imported into the GraphPad® Software (Prism) for IC50 determination. To calculate the IC50 values, the dose-response curves were fit to one-site (Hill slope=1) sigmoidal-dose-response curves.
# [3] = molecular target: T3, GST-pRbABC/6×His-Ad5E1ACR1-3 complex (Homo sapiens, UniProt P06400); assay: ELISA: disruption of pRb/Ad5-E1A complex; type: binding, adenovirus; conditions: disruption of pRb/viral oncoprotein complex; 100 nM E1A
# T3 construct: made in house; host or cells: pRb: Sf9; E1A: E. coli BL21(DE3)
# T3 sequence (P06400 376-928): T1 sequence (P06400 376-928)
# Experimental: as §2
# [4] = molecular target: T4, GST-pRbABC/6×His-HPV1AE7CR2-3 complex (Homo sapiens, UniProt P06400); assay: ELISA: disruption of pRb/HPV1A-E7 complex; type: binding, low risk HPV (type 1A); conditions: disruption of pRb/viral oncoprotein complex; 500 nM 1AE7
# T4 construct: made in house; host or cells: pRb: Sf9; E7: E. coli BL21(DE3)
# T4 sequence (P06400 376-928): T1 sequence (P06400 376-928)
# Experimental: as §2
# [5] = molecular target: T5, GST-pRbABC/E2F complex disrupted by 6×His-HPV1AE7CR2-3 (Homo sapiens, UniProt P06400); assay: ELISA: inhibition of HPV1A-E7-mediated disruption of pRb/E2F complexes; type: binding, low risk HPV (type 1A); conditions: E2F remaining bound to pRb; 500 nM 1AE7
# T5 construct: made in house; host or cells: pRb: Sf9; E2F1 and E7: E. coli BL21(DE3)
# T5 sequence (P06400 376-928): T1 sequence (P06400 376-928)
# T5 sequence (Q01094 243-437 partner limits assumed): T1 sequence (Q01094 243-437 partner limits assumed)
# Experimental: as §1, §2
# pRbAB = molecular target: T6, pRbAB (Homo sapiens, UniProt P06400, DEL590-635); assay: Isothermal titration calorimetry binding to pRbAB; conditions: for Kd: ITC, pRbAB, 22° C.
# T6 construct: untagged pRbAB (372-787 with the linker from 590-635 removed); made in house
# T6 sequence (P06400 with tags, fused parts or gaps DEL590-635): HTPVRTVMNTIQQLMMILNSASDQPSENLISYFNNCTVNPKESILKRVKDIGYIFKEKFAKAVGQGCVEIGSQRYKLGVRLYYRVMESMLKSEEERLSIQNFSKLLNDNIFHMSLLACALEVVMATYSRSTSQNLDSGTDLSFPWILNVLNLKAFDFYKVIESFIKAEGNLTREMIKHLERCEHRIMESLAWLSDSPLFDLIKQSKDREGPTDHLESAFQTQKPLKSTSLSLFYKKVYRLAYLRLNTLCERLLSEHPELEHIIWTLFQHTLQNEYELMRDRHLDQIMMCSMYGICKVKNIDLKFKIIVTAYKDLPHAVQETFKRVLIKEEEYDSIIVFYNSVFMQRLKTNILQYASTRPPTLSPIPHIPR
# Experimental: For use in isothermal titration calorimetry studies, untagged pRbAB (372-787 with the linker from 590-635 removed) was prepared as described in Xiao et al., PNAS USA, 100:2363-2368 (2003).
# This example illustrates the ability of the thiadiazolin-3,5-dione compounds to bind directly to a truncated pRb protein construct containing the A and B domains of the pRb pocket (pRbAB) using isothermal titration calorimetry (ITC).
# Binding of compounds 1-9 to pRbAB were measured by ITC using a MicroCal™ VP-ITC isothermal titration calorimeter (MicroCal, Inc). Proteins were extensively dialyzed against a buffer containing Hepes (20 mM), pH=7.5, NaCl (150 mM) and Tris carboxy ethyl phosphine (0.1 mM) prior to analysis. Eight to twelve μL injections of 750-1500 μM compound were titrated into a pRb solution (50-150 μM) pre-equilibrated to 22° C. After subtraction of dilution heats, calorimetric data were analyzed with the MicroCal™ Origin® V5.0 (MicroCal Software, Northampton, Mass.).
# SiHa cells = assay: Cell cycle and apoptosis in SiHa cells, propidium iodide flow cytometry and morphology; type: cell-based; conditions: 48 hours
# Experimental: Since the thiadiazolin-3,5-dione compounds bind to pRb, data was generated regarding their effect in cells infected with HPV. […] DNA content was determined by propidium iodine staining and analysis by flow cytometry.
# Cultured cell lines were seeded in 60 mm tissue culture dishes (Falcon) at 1×10^5 cells/well. […] Cells were then trypsinized, washed with phosphate-buffered saline (1.0 mL; PBS), and fixed in ethanol (80%) for 30 minutes on ice. Fixed cells were spun at 500 g for 5 minutes, rehydrated with PBS (1 mL), and spun again to remove any traces of ethanol. Cells were stained with propidium iodide (250 μL; PI), which was prepared by adding PI (100 μL, 2 mg/ml, Sigma) and RNase A (3.5 μL of 30 mg/ml, Sigma) into PBS (10 mL). Cells were then analyzed at the Wistar Institute Flow Cytometry Core Facility using standard equipment, reagents, and methodologies known in the art.
# SiHa cells (HPV 16) = assay: MTS cytotoxicity in SiHa cells; type: cell-based; conditions: 48 hours
# Experimental: These 120 compounds were then analyzed for cytotoxicity in cervical cancer cells either infected with HPV16 (SiHa) or negative for infection with HPV (C-33A) (Yee et al., 1985). The metabolic viability of cells was measured using a MTS assay (3-(4,5-dimethylthiazol-2-yl)-5-(3-carboxymethoxyphenyl)-2-(4-sulfophenyl)-2H-tetrazolium).
# (§3) Cultured cell lines were seeded in 384-well, clear, tissue culture plates (NUNC) at 10,000 cells/well and 1,000 cells/well for C-33A and SiHa, respectively, and maintained overnight. These concentrations were determined based on each cell line's doubling time. […] Cell viability was then monitored by addition of MTS reagent (8 μL; Promega) and measurement at A490 using a Wallac Envision™ plate reader after 3 hours of incubation.
# as §3, with “10,000 cells/well, 1,000 cells/well, 1,000 cells/well, 1,000 cells/well,” for “10,000 cells/well”, “and 2,000” for “and 1,000”, “for C-33A,” for “for C-33A and”, “SiHa, HeLa, TC-1, or HCT116 cells,” for “SiHa,”
# [6] = 10 μM compound (staurosporine 2 μM)
# [7] = SiHa, 10 μM compound (staurosporine 2 μM)
Structure (SMILES),IC50 [1],IC50 [2],IC50 [3],IC50 [4],IC50 [5],Kd (pRbAB),effect on SiHa cells (SiHa cells; [6]),% Apoptotic (SiHa cells; [7]),% S (SiHa cells; [7]),reversibility of binding to pRb (pRbAB; ITC repeated after overnight dialysis of pRb/compound complex),morphology of SiHa cells (SiHa cells),% G0/G1 (SiHa cells; [7]),% G2/M (SiHa cells; [7]),cytotoxicity in SiHa cells (SiHa cells (HPV 16))
COn1c(=O)sn(-c2ccccc2C)c1=O [Compound 2],640 nM,570 ± 1200 nM,2600 ± 1300 nM,3000 ± 2300 nM,3500 ± 1600 nM,104 ± 25 nM,–,–,–,–,–,–,–,–
COc1ccc(-n2sc(=O)n(C)c2=O)cc1 [Compound 6],1700 ± 2700 nM,400 nM,7700 ± 1700 nM,1300 ± 1300 nM,3300 ± 1600 nM,381 ± 31 nM,–,–,–,–,–,–,–,–
Cc1ccccc1-n1sc(=O)n(C)c1=O [Compound 3],240 nM,500 ± 1500 nM,1000 ± 2100 nM,3400 ± 2000 nM,4500 ± 1700 nM,106 ± 34 nM,most drastically affected,6.5%,15.4%,reversible,–,–,–,–
COc1cccc(-n2sc(=O)n(C)c2=O)c1 [Compound 7],3200 ± 2700 nM,290 nM,2800 ± 2100 nM,4000 ± 2500 nM,3500 ± 1700 nM,815 ± 70 nM,–,–,–,–,–,–,–,–
"Cn1c(=O)on(-c2ccc(Cl)c(Cl)c2)c1=O [2-(3,4-dimethyl-phenyl)-4-methyl-1,2,4-oxadiazolin-3,5-dione, reference compound]",–,–,–,–,–,–,no effect,0.9%,11.3%,–,maintained the elongated shape,71.8%,16.3%,–
Cc1ccccc1-n1sc(=O)n(C(C)C)c1=O [Compound 1],2800 ± 2200 nM,–,5000 ± 1800 nM,7900 ± 2100 nM,10600 ± 1300 nM,165 ± 52 nM,–,–,–,–,–,–,–,–
Cc1cccc(-n2sc(=O)n(C(C)C)c2=O)c1 [Compound 5],1100 ± 2500 nM,3200 ± 1300 nM,3500 ± 1700 nM,5500 ± 2700 nM,5500 ± 1500 nM,210 ± 51 nM,–,–,–,–,–,–,–,–
Cc1cc(Cl)ccc1-n1sc(=O)n(C(C)C)c1=O [Compound 4],1300 ± 2200 nM,4500 ± 1500 nM,3800 ± 1500 nM,4700 ± 2100 nM,5500 ± 1700 nM,187 ± 22 nM,most drastically affected,15.2%,15.8%,–,–,–,–,–
"CN[C@@H]1C[C@H]2O[C@@](C)([C@@H]1OC)n1c3ccccc3c3c4c(c5c6ccccc6n2c5c31)C(=O)NC4 [Staurosporine, reference compound]",–,–,–,–,–,–,most drastically affected,34.3%,13.8%,–,–,31.3%,–,toxic
